The source made the active and inactive calls. No rule for the calls is given here.

Assay [1] has as its target T1, Porphobilinogen deaminase (Homo sapiens) (UniProt P08397).
T1 sequence (whole entry): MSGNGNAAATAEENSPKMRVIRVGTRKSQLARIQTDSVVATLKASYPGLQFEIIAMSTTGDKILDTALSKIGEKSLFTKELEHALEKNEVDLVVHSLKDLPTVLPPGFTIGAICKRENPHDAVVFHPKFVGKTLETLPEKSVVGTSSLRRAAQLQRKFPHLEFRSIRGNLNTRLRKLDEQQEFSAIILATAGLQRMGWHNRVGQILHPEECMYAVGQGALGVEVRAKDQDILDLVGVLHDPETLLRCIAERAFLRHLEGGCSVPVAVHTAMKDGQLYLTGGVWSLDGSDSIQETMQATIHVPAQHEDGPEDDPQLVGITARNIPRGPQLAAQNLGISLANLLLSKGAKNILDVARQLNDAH
The conditions noted are these: at 100 µM.
Description: Compound was evaluated for the inhibition of human HMBS at 100uM

Assay [2] deals with T2, Ferrochelatase, mitochondrial (Homo sapiens) (UniProt P22830).
T2 sequence (whole entry): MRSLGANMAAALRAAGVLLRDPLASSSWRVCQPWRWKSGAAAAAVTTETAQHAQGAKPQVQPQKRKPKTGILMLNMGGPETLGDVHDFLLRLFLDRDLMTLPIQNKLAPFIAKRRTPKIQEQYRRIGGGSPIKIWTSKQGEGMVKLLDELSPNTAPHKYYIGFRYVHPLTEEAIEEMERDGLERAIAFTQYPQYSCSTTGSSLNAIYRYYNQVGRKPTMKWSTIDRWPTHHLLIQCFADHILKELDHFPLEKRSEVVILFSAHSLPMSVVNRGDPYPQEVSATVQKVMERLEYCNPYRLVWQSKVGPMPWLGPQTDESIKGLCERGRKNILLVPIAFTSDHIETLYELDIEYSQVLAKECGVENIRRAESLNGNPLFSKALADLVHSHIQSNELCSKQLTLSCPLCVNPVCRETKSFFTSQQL
The conditions noted are these: at 10 µM.
Description: Compound was evaluated for the inhibition of human FECH at 10uM

In the case of `COc1cccc(OCC(=O)c2ccc(Br)cc2)c1`, the inhibition entry in assay [1] and in assay [2] was “inactive” throughout.
In the case of `NCC(c1cccs1)S(=O)(=O)c1ccccc1` (stereo unspecified), the inhibition entry in assay [1] and in assay [2] was “inactive” in each case.
For `CCn1cnc2c(Nc3cc(F)cc(F)c3)nc(C#N)nc21`, the inhibition result in assay [1] and in assay [2] was “inactive” in each case.
In the case of `NC(=O)c1cc(-c2ccsc2)ccc1OCCOc1ccccc1`, the inhibition entry in assay [1] and in assay [2] was “inactive” in each case.
Regarding `O=C(Nc1ccc(N2CCNCC2)nc1)c1oc(-c2ccccc2)nc1C(F)(F)F`, the inhibition entry in assay [1] and in assay [2] was “inactive” throughout.
`CCc1cc(=O)n(C)c(SC(C)C(=O)Nc2ccc(F)cc2)n1` (stereo unspecified): the inhibition entry in assay [1] and in assay [2] was “inactive” each time.
On to `c1cc(C2=NCCN2)cc(-c2cc(-c3ccc(C4=NCCN4)cc3)no2)c1`, for which the inhibition entry in assay [1] and in assay [2] was “inactive” throughout.
Regarding `Cc1nc(-c2ccccn2)nc(N2CCC(Cc3ccccc3)C2)c1Cl` (stereo unspecified), the inhibition entry in assay [1] and in assay [2] was “inactive” each time.
`COc1ccc(OC(C)C(=O)Nc2ccc(Cl)cc2C)cc1` (stereo unspecified): the inhibition result in assay [1] and in assay [2] was “inactive” throughout.
For the compound `O=C(Nc1ccc(N2CCNCC2)cc1)c1ccn2ncc(-c3cccc(Cl)c3)c2n1`, the inhibition entry in assay [1] and in assay [2] was “inactive” in each case.
With `COc1ccc(C2=NN(C3CCCCCC3)C(=O)C2(C)C)cc1OCc1ccccn1`, the inhibition result in assay [1] and in assay [2] was “inactive” throughout.
For `Cc1ccc(NC(=O)CC2COc3ccccc3O2)cc1Cl` (stereo unspecified), the inhibition result in assay [1] and in assay [2] was “inactive” throughout.
In the case of `O=C(NCCc1ccccc1)c1cc(-c2cccnc2)cnc1NCC1CC1`, the inhibition entry in assay [1] and in assay [2] was “inactive” throughout.
In the case of `O=C(CN1CCOCC1)Nc1ccc2ncnc(Nc3ccc(OCc4cccc(F)c4)c(Cl)c3)c2c1`, the inhibition entry in assay [1] and in assay [2] was “inactive” throughout.
Consider `CCN(CC)CCCN1CCN(C(=O)c2cccc(-c3noc(C(F)(F)F)n3)c2)CC1`, for which the inhibition entry in assay [1] and in assay [2] was “inactive” throughout.
Turning to `COc1cccc(-n2nnnc2S(=O)(=O)Cc2ccccc2)c1`, the inhibition entry in assay [1] and in assay [2] was “inactive” in each case.
For the compound `Cc1cc(C2=NOC(c3cc(Cl)c(F)c(Cl)c3)(C(F)(F)F)C2)ccc1C(=O)NCc1ccc2c(c1)C(C)(C)OB2O` (stereo unspecified), the inhibition result in assay [1] and in assay [2] was “inactive” each time.
Take `CCCc1ccc(S(=O)(=O)Nc2ccc(CN3CCN(CC4CC4)CC3)cc2)cc1`: the inhibition result in assay [1] and in assay [2] was “inactive” each time.
Regarding `CCc1ccc([C@@H]2C[C@H](C(F)(F)F)n3ncc(C(=O)NCc4ccc(OC)cc4)c3N2)cc1`, the inhibition result in assay [1] and in assay [2] was “inactive” each time.
On to `CC1(C)OB(O)c2ccc(C3=NOC(c4cc(Cl)c(F)c(Cl)c4)(C(F)(F)F)C3)cc21` (stereo unspecified), for which the inhibition result in assay [1] and in assay [2] was “inactive” throughout.
For the compound `CCOc1ccc2cc(-c3nn(CC4CCN(C)CC4)c4ncnc(N)c34)ccc2c1`, the inhibition entry in assay [1] and in assay [2] was “inactive” in each case.
For the compound `CCN(CC)S(=O)(=O)c1ccc(C(=O)Nc2cc(C)nn2-c2nc(C)c(C)c(=O)[nH]2)cc1`, the inhibition result in assay [1] and in assay [2] was “inactive” in each case.
As to `c1csc(-c2cnc3sc(NCC4CCOCC4)nn23)c1`, the inhibition entry in assay [1] and in assay [2] was “inactive” in each case.
For `Nc1ccc(C(=O)Nc2ccc(-c3nc4ccccc4o3)cc2)cc1`, the inhibition entry in assay [1] and in assay [2] was “inactive” throughout.
For `NCCCC(N)(C(=O)O)C(F)F` (stereo unspecified), the inhibition entry in assay [1] and in assay [2] was “inactive” throughout.
Turning to `CC1=Nc2ccc(Cl)cc2C(O)(c2ccc(C)cc2)N1CCN1CCCCC1` (stereo unspecified), the inhibition entry in assay [1] and in assay [2] was “inactive” throughout.
Turning to `COC(=O)Nc1nc2cc(C(=O)c3ccccc3)ccc2[nH]1`, the inhibition entry in assay [1] and in assay [2] was “inactive” throughout.
Take `Cc1ccc2nc(C)c(-c3ccn(Cc4ccccc4)n3)n2c1`: the inhibition result in assay [1] and in assay [2] was “inactive” each time.
For `O=C(Nc1ccc2c(c1)B(O)OC2)c1ccccc1C(F)(F)F`, the inhibition entry in assay [1] and in assay [2] was “inactive” each time.
In the case of `COc1ccccc1OCCCCn1c(C2CC2)nc2ccccc21`, the inhibition result in assay [1] and in assay [2] was “inactive” each time.
Turning to `Cc1cccc(NC(=O)c2cc(S(=O)(=O)N(C)c3ccc(F)cc3)ccc2Cl)n1`, the inhibition entry in assay [1] and in assay [2] was “inactive” each time.
For `Clc1ccc(CCNc2cc(-c3ccccc3)nc3ncnn23)cc1`, the inhibition entry in assay [1] and in assay [2] was “inactive” in each case.
Consider `COc1ccc(CN2CCOc3ccc(C(C)(O)CN(C)C)cc3C2)cc1C` (stereo unspecified), for which the inhibition result in assay [1] and in assay [2] was “inactive” each time.
Turning to `Cc1cc(NCC(C)C)c2[nH]nc(-c3ccccc3)c2n1`, the inhibition entry in assay [1] and in assay [2] was “inactive” each time.
Regarding `COc1cc(OC)cc(C(=O)NCC2Cc3cc(Cl)cc(-c4ccncc4)c3O2)c1` (stereo unspecified), the inhibition entry in assay [1] and in assay [2] was “inactive” in each case.
Turning to `CC1=Nc2ccc(Cl)cc2C(c2ccccc2)N1CCNC(=O)CN(C)C` (stereo unspecified), the inhibition result in assay [1] and in assay [2] was “inactive” in each case.
Consider `O=S(=O)(c1ccc(Cl)cc1)N1CCN(C(=S)NCc2ccco2)CC1`, for which the inhibition result in assay [1] and in assay [2] was “inactive” in each case.
With `O=C(c1ccc(F)cc1)N(CCNc1ccccc1)c1ccccc1`, the inhibition entry in assay [1] and in assay [2] was “inactive” throughout.
`Nc1nccc2ccc(Oc3ccncc3)cc12`: the inhibition entry in assay [1] and in assay [2] was “inactive” throughout.
For the compound `CC(C)(C)c1ccc(N[C@@H]2CCCC[C@H]2NC(=O)c2ccco2)cc1`, the inhibition result in assay [1] and in assay [2] was “inactive” each time.
`CO/C=C(/C(=O)OC)c1ccccc1Oc1cc(Oc2ccccc2C#N)ncn1`: the inhibition result in assay [1] and in assay [2] was “inactive” in each case.
With `O=C(CCC1CCCCC1)Nc1cccc(-c2nnc(-c3ccco3)o2)c1`, the inhibition result in assay [1] and in assay [2] was “inactive” throughout.
As for `Cc1ccc(NC(=O)c2cc(S(=O)(=O)NC(C)(C)C)ccc2C)nc1`, the inhibition entry in assay [1] and in assay [2] was “inactive” in each case.
For `Nc1nc(N)c2c3c(sc2n1)CN(Cc1ccccc1)CC3`, the inhibition entry in assay [1] and in assay [2] was “inactive” each time.
As for `CCc1nc2ccc(C(=O)NCc3ccc4c(c3)OCO4)cn2c1N(C)Cc1cccs1`, the inhibition result in assay [1] and in assay [2] was “inactive” throughout.
On to `CCOC(=O)c1cc(-c2csc(Nc3c(C)cc(C)cc3C)n2)on1`, for which the inhibition entry in assay [1] and in assay [2] was “inactive” throughout.
Turning to `CCCn1c(NC(=O)c2ccc3ccccc3n2)nc2ccccc21`, the inhibition result in assay [1] and in assay [2] was “inactive” throughout.
On to `Cc1nn(Cc2ccccc2)c(Cl)c1C(=O)NC1CCCCCC1`, for which the inhibition entry in assay [1] and in assay [2] was “inactive” throughout.
Take `CN1CCCC1CCO[C@](C)(c1ccccc1)c1ccc(Cl)cc1` (stereo partly specified): the inhibition entry in assay [1] and in assay [2] was “inactive” throughout.
Consider `Cc1ccc2nc(Cl)c(CNCc3cccs3)cc2c1`, for which the inhibition result in assay [1] and in assay [2] was “inactive” each time.
On to `Cc1ccc(S(=O)(=O)N2CCN(C(=O)c3cc(-c4ccccc4)n[nH]3)CC2)cc1`, for which the inhibition result in assay [1] and in assay [2] was “inactive” in each case.
In the case of `CCc1ccccc1-n1c(C)cn2c3c(=O)n(C(C(=O)OC)C(C)C)c(=O)n(C)c3nc12` (stereo unspecified), the inhibition result in assay [1] and in assay [2] was “inactive” throughout.
For `Clc1ccc(CN2CCN(C3=NCCN3)CC2)cc1Cl`, the inhibition entry in assay [1] and in assay [2] was “inactive” in each case.
As to `C[C@H]1COc2c(N3CCN(C)CC3)c(F)cc3c(=O)c(C(=O)O)cn1c23`, the inhibition result in assay [1] and in assay [2] was “inactive” each time.
Regarding `CC(=O)N1CCc2cc3nc(C)cc(C)c3cc21`, the inhibition entry in assay [1] and in assay [2] was “inactive” throughout.
Consider `FC(F)(F)c1cc(NCCc2ccccc2)nc(-c2ccccn2)n1`, for which the inhibition entry in assay [1] was “inactive”.

The values above are taken from ChEMBL document CHEMBL3987221, “The Australian National University Dept Of Immunology Pathogen Box Compounds Screened” (2018).
